Compared with CCN(CC)CCN1C(=O)C(NC(=O)c2ccccc2)C(C)(C)SC1=S (centres undefined), CCCCNC(=S)c1ccc2c(c1)N(C(C)CN(C)C)c1ccccc1S2 (racemic) is higher in melting point: 152 to 153 °C for the first, 154 °C for the second.

First: c1ccc(C2CCN(c3nsc4ccccc34)CC2)cc1
Second: O=C(O)c1ccc(-n2cc3ccccc3n2)cc1
The melting point of the first is lower: 175 to 177 °C for the first, 286 to 288 °C for the second.

First: CCCc1c(C)nc2ccc(C(=O)OC)cn2c1=O
Second: CCCc1c2c(c3oc(C(=O)OC)cc(=O)c3c1OC)CCCC2
The melting point of the first is lower: 98 to 99 °C for the first, 124 °C for the second.

Compared with Fc1ccc2c(C3=CCN(CCC4OCCc5cc(Br)ccc54)CC3)c[nH]c2c1 (centres undefined), CC1(C)CCC(C)(C)c2cc3c(cc21)CCc1c(-c2ccc(C(=O)O)cc2)c[nH]c1-3 is higher in melting point: 184 to 186 °C for the first, 268 to 270 °C for the second.

First: Fc1c(F)c(F)c(CSc2nc3cnccc3[nH]2)c(F)c1F
Second: Fc1ccc2c(CN3CCN(c4ccc(Cl)cc4)CC3)n[nH]c2c1F
The melting point of the first is lower: 156 to 159 °C for the first, 167 to 168 °C for the second.

First: N#CC(C#N)C(=O)c1ccoc1
Second: O=C(c1ccc(F)cc1)c1ccc([N+](=O)[O-])cc1Cl
The melting point of the first is higher: 98 to 99 °C for the first, 83 to 84 °C for the second.

First: Cc1ccc(C(=O)Nc2nc(-c3ccccc3)c(-c3nc4ccccc4c(=O)n3-c3ccc(C)cc3)s2)cc1
Second: COc1ccc(-c2c3ccccc3cc3sc4ccccc4c23)cc1I
The melting point of the first is lower: 217 to 218 °C for the first, 274 to 275 °C for the second.

First: COc1ccc(-c2ocnc2-c2cc(OC)c(O)c(OC)c2)cc1F
Second: COc1ccc(-n2cccc2-c2ccc(S(C)(=O)=O)cc2)cc1OC
The melting point of the first is higher: 161 to 163 °C for the first, 124 to 126 °C for the second.

Compared with CCC(=O)C1CCC2C3CCC4CC(=O)CCC4(C)C3C(=O)CC12C (centres undefined), CN(C)S(=O)(=O)c1cccc2c1Sc1ccc(OC3CCCCO3)cc1N2CCCN1CCC(CCO)CC1 (centres undefined) is lower in melting point: 148 °C for the first, 129 to 131 °C for the second.

First: O=C1c2ccccc2CCc2ncsc21
Second: O=C1C(=Cc2ccc(O)c(CO)c2)Cc2ccccc21
The melting point of the first is lower: 83 to 86 °C for the first, 194 to 195 °C for the second.

First: OCC1C=CC(n2cnc3c(Cl)ncnc32)C1 (centres undefined)
Second: OCC1OC(n2c(Br)nc3c(NCc4ccccc4)ncnc32)C(O)C1O (centres undefined)
The melting point of the first is higher: 121 to 124 °C for the first, 96 to 98 °C for the second.

First: O=C1c2cccc3cc(F)cc(c23)C(=O)N1O
Second: Cn1cc(C(=O)NCc2ccc(Cl)cc2)c(=O)c2cc(/C=C\CO)cc(F)c21
The melting point of the first is higher: 244 to 247 °C for the first, 182 to 184 °C for the second.

First: Cc1ccc(S(=O)(=O)NC(CN)C(=O)O)cc1 (centres undefined)
Second: CC(C)(Cc1ccc(Br)cc1)C(C(=O)O)C(=O)O
The melting point of the first is higher: 225 to 226 °C for the first, 169 to 173 °C for the second.

First: COc1ccc2c(Cc3c(Cl)cncc3Cl)nnc(CN3CCOCC3)c2c1
Second: COc1ccc(N2C(=O)c3ccc(Cl)cc3C2CC(=O)N2CCC3(CC2)OCCO3)cc1 (centres undefined)
The melting point of the first is higher: 203 to 206 °C for the first, 156 to 157 °C for the second.

First: COC(=O)C(Cc1ccc([N+](=O)[O-])c(OCc2ccccc2)c1)(NC(=O)OC(C)(C)C)C(=O)OC
Second: CC(C)(C)c1ncc(OCc2ccccc2)c(Cl)n1
The melting point of the first is higher: 114 to 116 °C for the first, 51 °C for the second.

First: CC(C=O)C(C(=O)O)c1ccc(Cl)c(Cl)c1 (centres undefined)
Second: CCc1nc(C)cn1C(=O)c1c(Cl)cccc1[N+](=O)[O-]
The melting point of the first is higher: 124 to 126 °C for the first, 116 to 118 °C for the second.

First: CN(C)c1n[nH]c(-c2ccc(Cl)cc2)c1CC(=O)O
Second: CC(C)c1nc(C(O)(C(F)(F)F)C(F)(F)F)[nH]c1-c1ccc(S(C)(=O)=O)cc1
The melting point of the first is lower: 157 to 168 °C for the first, 182 to 184 °C for the second.

Compared with CCOC(=O)c1nc(C2CC2)nc(N)c1/C=C/[Si](C)(C)C, CCCCc1nc2c(N)nc3cccnc3c2n1CCNC(=O)C1CCC(=O)O1 (centres undefined) is higher in melting point: 99 to 101 °C for the first, 153 to 154 °C for the second.

First: CCCCCC(O)CCC1CCC(=O)C1CCCCC=CC(=O)O (centres undefined)
Second: CCOc1ccc(C2=NN(CCCCCCBr)C(=O)[C@H]3CCCC[C@@H]23)cc1OCC (relative stereo)
The melting point of the first is higher: 71 to 75 °C for the first, 47 to 51 °C for the second.

First: CCCCCCOc1ccc(C=[N+]([O-])CCCCCC[N+]([O-])=Cc2ccc(OCCCCCC)cc2)cc1
Second: COCCOc1ccc(/C=C/c2cc(/C=C/c3ccc4cc[nH]c4c3)n[nH]2)c(OC)c1
The melting point of the first is lower: 80 °C for the first, 90 to 96 °C for the second.

First: COc1ccc(C(=O)Nc2ccc(F)c(F)c2)cc1NC(=S)Nc1cc(Cl)cc(Cl)c1
Second: Cn1nc(-c2c(F)cccc2Cl)nc1-c1ccc(Oc2ccccc2)cc1Cl
The melting point of the first is higher: 180 to 183 °C for the first, 135 to 140 °C for the second.

First: COc1ccc(N(C(=O)CN2C(=O)C(CO)C(=O)N(c3ccccc3)c3ccccc32)C(C)C)cc1 (centres undefined)
Second: O=C(COc1ccccc1)N[C@@H](Cc1ccccc1)C(=O)CSCc1ccsc1
The melting point of the first is higher: 136 to 139 °C for the first, 80 to 81 °C for the second.

First: CC(C)(C)c1cc(CCc2ccccc2NC(=O)NC2CCN(Cc3cccc(F)c3)CC2)cc(C(C)(C)C)c1O
Second: CS(=O)(=O)Nc1cccc(CC2c3ccccc3CCc3ccccc32)c1
The melting point of the first is lower: 99 to 100 °C for the first, 149 °C for the second.

First: Cc1cc(C2=NNC(=O)Cc3cc4c(cc32)OCO4)ccc1[N+](=O)[O-]
Second: Cn1nnnc1-c1ccc2oc3ncccc3c(=O)c2c1
The melting point of the first is higher: 275 to 277 °C for the first, 248 °C for the second.

First: c1csc(Cn2ccnc2-c2ncc[nH]2)c1
Second: Cc1nc(N)cc(-n2ccc3ccccc32)n1
The melting point of the first is lower: 153 to 155 °C for the first, 176 to 177 °C for the second.

First: CC(Nc1nc(Oc2cccc3sc(N)nc23)cc(-c2ccc(C(F)(F)F)cc2)n1)c1ccc(F)cc1 (centres undefined)
Second: O=C1N[C@H](Cc2ccc(C(F)(F)F)cc2)[C@H](c2ccccc2F)O1 (racemic)
The melting point of the first is higher: 231 °C for the first, 146 to 147 °C for the second.

Compared with Cc1nc2c3c(c(C(=O)N(C)C)cc2n1C)CC[C@@H](c1ccccc1F)O3, CCn1nccc1C(=O)Nc1cc(Oc2ccc3nc(NC(=O)C4CC4)cn3n2)ccc1F is higher in melting point: 199 to 201 °C for the first, 209 °C for the second.

First: c1ccc(Cc2nnn[nH]2)c(COc2ccc3oc(-c4nc5c(s4)NCCCC5)cc3c2)c1
Second: CCOc1cccc(C(COc2ccccc2)n2nc(C(=O)O)c3c2-c2ccc(OCc4cncnc4)cc2CC3)c1 (centres undefined)
The melting point of the first is lower: 110 to 118 °C for the first, 190 to 192 °C for the second.

First: Nc1ccc(CCNC(=O)C(F)(F)F)cc1
Second: Nc1ccc(Oc2c(Cl)cc(C(F)(F)F)cc2Cl)cc1
The melting point of the first is lower: 81 to 85 °C for the first, 128 to 130 °C for the second.

First: CC(C)([C@H](NC(=O)c1ccccc1)C(=O)N[C@@H](Cc1ccccc1)[C@H](O)CN1C[C@H]2CCCC[C@H]2C[C@H]1C(=O)NCc1ccccc1)S(C)(=O)=O
Second: CCOC(=O)C(NC(C)=O)C(O)c1ccc(C=Cc2csc3ccccc23)s1 (centres undefined)
The melting point of the first is higher: 212 to 218 °C for the first, 157 to 159 °C for the second.

Compared with COC(=O)c1ccc(C(=O)OC)c(S(=O)(=O)NC(C)(C)C)c1, CC(=O)c1ccc(C)cc1N(C)C=O is lower in melting point: 132 to 134 °C for the first, 58 to 60 °C for the second.

First: COc1cc2c(cc1OC)C1Cc3cc(OC)c(OC(=O)C=Cc4cc(OC)c(OC)c(OC)c4)cc3CN1CC2 (centres undefined)
Second: COCCN1CCN(Cc2ccc3c(c2)-c2[nH]nc(-c4ccsc4)c2C3)CC1
The melting point of the first is higher: 207 to 210 °C for the first, 140 to 142 °C for the second.

Compared with COCOc1ccccc1-c1cc(-c2cccc(CN=[N+]=[N-])c2)c(C#N)c(N)n1, CC(C)=CCCC(C)=CCc1c(-c2ccc(O)cc2O)oc2cc(O)cc(O)c2c1=O is lower in melting point: 99 to 100 °C for the first, 94 to 95 °C for the second.

First: COc1c(CC(=O)O)cccc1CC(=O)O
Second: CC(C)Oc1c(Br)csc1C(=O)Nc1nnn[nH]1
The melting point of the first is lower: 184 to 186 °C for the first, 193 to 194 °C for the second.

Work on C#CCC(O)(c1cncnc1)C(C)(C)C (centres undefined) yielded a melting point of 174 to 176 °C.
